# Results as given in US8551958B2, “Galactosylated pro-drugs of non-steroidal anti-inflammatories with improved pharmacokinetic characteristics and reduced toxicity of the starting drug” (Stewart Italia Srl, priority 2008, dated 2013).
# What was measured:
# [1] = system: mouse carrageenan paw oedema; assay: Carrageenan oedema test; type: in vivo, mice; conditions: for Oedema formation after parent drug: 10 mg/kg oral; for Carrageenan-induced oedema, first phase (0-6 h): pro-drug 16.3 mg/kg oral
# Experimental: Anti-inflammatory activity was tested by means of the carrageenan oedema test. The mice were divided into groups of six. The initial volumes of the leg of all the animals were measured using a plethysmometer. The oedema is induced in the leg by means of sub-plantar injection of 50 μl of saline solution containing 1% of carrageenan. The volume of the leg was measured at different time intervals. Said experimental model consists of two phases: a first, acute, phase lasting 6 hours and a second, chronic, phase, up to 72 hours.
# The anti-inflammatory activity of the physical mixture of ketorolac and galactose was evaluated with the carrageenan induced mice hind paw edema assay, as described for ketogal. […]
# The carrageenan induced mice hind paw oedema assay described by D'Agostino et al. (2007) was used to evaluate the acute anti-inflammatory activity of the conjugate. Mice were divided into control and test groups of six animals each. Initial paw volumes of all animals were measured using a plethysmometer apparatus (Ugo Basile, Milan, Italy) before treatment. Paw oedema was induced by a subplantar injection of 50 μL of saline containing 1% λ-carrageenan into the right hind paw. […] free acid and ketogal were orally administrated 1 h before carrageenan challenge. Paw volume was measured at different time intervals by plethysmometer. The increase in paw volume was evaluated as the difference between the paw volume measured at each time point and the basal paw volume measured immediately before carrageenan injection.
# mice = assay: Ulcerogenicity studies, flurbiprofen and flugal (NSAID-induced gastric damage in mice); type: in vivo; conditions: oral, after 4 h; for gastric lesion score / n. of ulcers: flurbiprofen 10 mg/kg, flugal 16.6 mg/kg (table); for n. of ulcers: fasted mice
# Experimental: NSAID-induced gastric damage in mice was evaluated following the procedure described by Chan et al. (1995). […] After 4 h of treatment, mice were euthanized and the stomach was excised along its greater curvature and rinsed with normal saline. The mucosa was then examined by means of a magnifying glass for the presence of irritation or frank hemorrhagic lesions (ulcers). Irritation was assigned a score of 1, and ulcerations were scored according to their length (a score of 5 for lesions with a length between 1 and 3 mm; a score of 10 for lesions greater than 3 mm). The sum of total scores was used for comparison.
# [2] = system: mouse carrageenan paw oedema; assay: Carrageenan oedema test; type: in vivo, mice; conditions: pro-drug 16.3 mg/kg oral, 1 h before carrageenan
# [3] = Chemical stability of the pro-drug (phosphate buffer pH 7.4; HCl 0.1 N pH 1), HPLC; type: physicochemical; conditions: in the dark; for pH 7.4 T½: phosphate buffer at pH 7.4, 37° C.; for pH 1 T½: solution of HCl 0.1 N (pH 1), 37° C.
# Experimental: For the stability study, the solutions of pro-drug were prepared by dissolving an aliquot of Ketogal in a phosphate buffer at pH 7.4, or else in a solution of HCl 0.1 N (pH 1), as regards chemical stability, or else in a plasma specimen, for enzymatic stability. The solutions were kept in the dark, at a temperature of 37° C., for 24 hours. After each hour an aliquot of specimen was taken. In the case of plasma, said aliquot was previously extracted with acetonitrile (1:2), “vortexed” and centrifuged at 3000 r.p.m. for 10 min. The supernatant was taken and used for analysis at HPLC with diode detector. The half-lives for chemical stability and enzymatic stability were calculated by quantizing, in time, the percentage of pro-drug that remained in solution. For the chromatographic separations, a 1090L HPLC (Hewlett-Packard, Palo Alto, USA) was used, coupled to a diode detector HP 1040A. A Phenomenex Luna C18 (250×4.6 mm, 5 μm) column was used. The wavelength used was 313 nm. The mobile phase was constituted by acetonitrile and an aqueous solution of phosphoric acid […] (pH 3) in the ratio of 68:32. The flow was 1 mL/min, with an injection volume of 20 μl. All the reagents and the solvents used were of analytical degree. The distilled and deionized water was purified by means of a Milli Q system (Millipore). The retention times of the compounds were: ketorolac: 6.7 min; Ketogal: 3.8 min. As internal standard tolmetin was used (9.3 min). The straight line of calibration for quantification of the compounds was constructed using standard solutions with concentrations of between 0.1 and 100 μg/ml. The linearity was obtained with a coefficient of regression (R^2) of approximately 0.998.
# For the study of the stability, the solutions of pro-drug were prepared by dissolving an aliquot of Flugal in a phosphate buffer at pH 7.4, as regards chemical stability, or else in a plasma specimen, for enzymatic stability. The solutions were kept in the dark, at a temperature of 37° C., for 24 hours. After each hour an aliquot of specimen was taken. In the case of the plasma said amount was previously extracted with acetonitrile (1:2), “vortexed”, and centrifuged at 3000 r.p.m. for 10 min. The supernatant was taken and used for analysis at HPLC with diode detector. The half-lives for the chemical stability and enzymatic stability were calculated by quantizing, in time, the percentage of pro-drug that remained in solution. A 1090L HPLC (Hewlett-Packard, Palo Alto, USA) coupled to a diode detector HP 1040A was used for the chromatographic separations. The column used was a Supelcosil LC-18, 250×4.6 mm, particle size […]. The volume injected was […] and the flow of 1 mL/min. The mobile phase was constituted by a mixture of aqueous CH3CN/H3PO4 1 mM (pH 3) [32:68]. For the quantitative determination reading was made at 250 nm. The retention times of the various compounds involved in the analysis were: for Flugal 6 min and for flurbiprofen 11 min. All the reagents and the solvents used were of analytical degree. The distilled and deionized water was purified by means of a Milli Q system (Millipore). The straight line of calibration for the quantification of the compounds was constructed using standard solutions with concentrations of between 0.1 and 100 μg/ml. Linearity was obtained with a coefficient of regression (R^2) of approximately 0.998. From the results of said analysis (illustrated in Table 3) it emerges that the pro-drug Flugal has a good chemical stability and a good susceptibility to enzymatic hydrolysis.
# Chemical stability was assessed also at pH 1.0 in a solution of HCl 0.1N as described.
# For the stability study, the solutions of pro-drug were prepared by dissolving an aliquot of Okigal in a phosphate buffer at pH 7.4, or else in a solution of HCl 0.1 N (pH 1), as regards chemical stability, or else in a plasma specimen, for enzymatic stability. The solutions were kept in the dark, at a temperature of 37° C., for 24 hours. […]
# [4] = Enzymatic stability in plasma, HPLC; type: in vitro ADME; conditions: plasma specimen, 37° C., in the dark; read-out: Plasma T½ (converted)
# Experimental: For the stability study, the solutions of pro-drug were prepared by dissolving an aliquot of Ketogal in a phosphate buffer at pH 7.4, or else in a solution of HCl 0.1 N (pH 1), as regards chemical stability, or else in a plasma specimen, for enzymatic stability. The solutions were kept in the dark, at a temperature of 37° C., for 24 hours. After each hour an aliquot of specimen was taken. In the case of plasma, said aliquot was previously extracted with acetonitrile (1:2), “vortexed” and centrifuged at 3000 r.p.m. for 10 min. The supernatant was taken and used for analysis at HPLC with diode detector. The half-lives for chemical stability and enzymatic stability were calculated by quantizing, in time, the percentage of pro-drug that remained in solution. For the chromatographic separations, a 1090L HPLC (Hewlett-Packard, Palo Alto, USA) was used, coupled to a diode detector HP 1040A. A Phenomenex Luna C18 (250×4.6 mm, 5 μm) column was used. The wavelength used was 313 nm. The mobile phase was constituted by acetonitrile and an aqueous solution of phosphoric acid […] (pH 3) in the ratio of 68:32. The flow was 1 mL/min, with an injection volume of 20 μl. All the reagents and the solvents used were of analytical degree. The distilled and deionized water was purified by means of a Milli Q system (Millipore). […] The straight line of calibration for quantification of the compounds was constructed using standard solutions with concentrations of between 0.1 and 100 μg/ml. […]
# For the study of the stability, the solutions of pro-drug were prepared by dissolving an aliquot of Flugal in a phosphate buffer at pH 7.4, as regards chemical stability, or else in a plasma specimen, for enzymatic stability. […] The half-lives for the chemical stability and enzymatic stability were calculated by quantizing, in time, the percentage of pro-drug that remained in solution. […] For the quantitative determination reading was made at 250 nm. […] The straight line of calibration for the quantification of the compounds was constructed using standard solutions with concentrations of between 0.1 and 100 μg/ml. […]
# male Swiss mice [5] = assay: Ulcerogenicity studies, ketorolac and Ketogal (gastric lesions); type: in vivo; conditions: oral, ketorolac 10.0 mg/kg, Ketogal 16.3 mg/kg, after 4 hours
# Experimental: The gastric lesions were evaluated in male Swiss mice. To the fasted animals (16-18 h) were administered, by oral route, ketorolac (10 mg/kg), Ketogal (16.3 mg/kg), or the vehicle. After 4 hours, the mice were sacrificed and the stomach removed, cut along the major curvature, washed with physiological solution, and the mucous was examined for evaluation of the presence of petechias and/or gastric lesions. A “score” of 1 was assigned to the petechias, and a “score” based on the diameter (a “score” of 5 for lesions of a diameter of less than 1 mm; a “score” of 10 for lesions with a diameter of more than 1 mm) was, instead, assigned to the lesions.
# COX-1 = assay: Western blot, stomach, COX-1 protein expression; type: in vivo, mice; conditions: ketorolac 10 mg/Kg, ketogal 16.3 mg/Kg, oral, 3, 5 and 7 days; versus control stomachs
# Description: (§1) Animals were sacrificed and then liver, stomach and kidney were collected in glass tubes and analysed histologically and biochemically.
# [6] = system: writhing induced by acetic acid; assay: Writhing test induced by acetic acid; type: in vivo, mice; conditions: 60 min prior to acetic acid
# Experimental: The analgesic activity was studied using the “writhing test” using acetic acid and using magnesium sulphate. To the mice there was administered by intraperitoneal route 1 mL of solution at 1% of acetic acid, and the number of writhing events was evaluated for 20 min, after 5 min from administration of the solution of acetic acid. Writhing is defined as a contraction of the abdominal muscles accompanied by elongation of the body and of the rear legs. Ketorolac and Ketogal were administered by oral route 60 min prior to administration of the solution of acetic acid. The analgesic effect is expressed in number of writhing events as compared to the control.
# male Swiss mice [7] = assay: Chronic and sub-chronic experiments: liver, kidney and stomach examination; type: in vivo; conditions: ketorolac 10 mg/Kg, ketogal 16.3 mg/Kg, oral
# Experimental: as §1
# Liver samples were fixed in 10% buffered formalin and embedded in paraffin, sliced, and stained with hematoxylin & eosin (H&E) for assessment of liver pathology. […] To confirm histological data, western blot analysis for TNF-alpha, IL-6 and malonyldialdehyde assay were then performed in liver lysates.
# [8] = system: writhing induced by magnesium sulphate; assay: Writhing induced by magnesium sulphate (visceral pain); type: in vivo, mouse; conditions: ketorolac 0.01 to 10 mg/kg, Ketogal in equimolar dose; 1 hour before magnesium sulphate 120 mg/kg
# Experimental: In order to determine whether ketorolac and Ketogal are able to inhibit visceral pain, the effects of these compounds on “writhing” induced by magnesium sulphate were tested. Magnesium sulphate induces a reversible response when injected by intraperitoneal route in the mouse. The administration of 120 mg/kg of magnesium sulphate induces an average of 6±0.9 episodes of “writhing” in the mouse (n=6).
# PGE synthase = assay: Western blot, stomach, PGE synthase protein expression; type: in vivo, mice; conditions: ketorolac 10 mg/Kg, ketogal 16.3 mg/Kg, oral, 3, 5 and 7 days
# Description: as §1
# PPAR-gamma = assay: Western blot, stomach, PPAR-gamma protein expression; type: in vivo, mice; conditions: ketorolac 10 mg/Kg, ketogal 16.3 mg/Kg, oral, 3, 5 and 7 days
# Description: as §1
Compound,Oedema formation after parent drug ([1]; 1 h before carrageenan),gastric lesion score (mice),n. of ulcers (mice),"Carrageenan-induced oedema, second phase (24-96 h) [2]",pH 7.4 T½ [3],pH 1 T½ [3],"Carrageenan-induced oedema, first phase (0-6 h) ([1]; 1 h before carrageenan)",half-life [4],other results
"CC(C(=O)O)c1cccc(C(=O)c2ccccc2)c1 (centres unmarked) [Ketoprofen, ketoprofen, reference compound]",significantly inhibited oedema formation until 48 h,–,–,–,–,–,–,–,–
"CC(C(=O)O)c1ccc(-c2ccccc2)c(F)c1 (centres unmarked) [flurbiprofen, reference compound]",significantly inhibited oedema formation until 48 h,2,3 ± 1.5,–,–,–,–,–,–
"CC(C(=O)OCC1O[C@H](O)C(O)C(O)[C@H]1O)c1cccc(C(=O)c2ccccc2)c1 (stereo partly drawn) [Okigal, Ketoprofen-D-galactos-6′-yl ester]",–,–,–,significant anti-inflammatory effect,>8 hours,>8 hours,slightly modify carrageenan-induced oedema,240 min,–
"CC(C(=O)OCC1O[C@H](O)C(O)[C@@H](O)[C@H]1O)c1ccc(-c2ccccc2)c(F)c1 (stereo partly drawn) [Flugal, flurbiprofen-D-galactos-6′-yl ester]",–,0,1 ± 1,significant anti-inflammatory effect,>8 hours,>8 hours,did not modify carrageenan-induced oedema,60 min,Ulcerogenic activity (in words) (mice; flugal 16.3 mg/kg): caused only irritation without ulceration
"O=C(c1ccccc1)c1ccc2n1CC[C@@H]2C(=O)O [ketorolac, reference compound]",–,–,–,–,–,–,–,–,"Degree of ulcerogenicity (male Swiss mice [5]; score 1 petechias, 5 or 10 lesions): 10; Number of ulcers (male Swiss mice [5]; fasted mice): 4 ± 0.4; Formation of oedema, first phase, lowest dose ([1]; ketorolac 0.1 mg/kg oral, first phase): had no effect; Gastric COX-1 protein expression (COX-1): significantly inhibited; Dosages with significant analgesic effect (p<0.01) ([6]; ketorolac by oral route): significant at the dosages of 1 and 10 mg/kg; Analgesic effect (number of writhing events compared to control) ([6]; oral, ketorolac 0.01-10 mg/kg, Ketogal 0.0163-16.3 mg/kg): dose-dependent analgesic effect; Kidney histology (male Swiss mice [7]; after 3, 5 and 7 days): normal kidney histology; Stomach samples, ulcerogenicity (male Swiss mice [7]; for 3 days): high ulcerogenicity degree; Inhibition of writhing induced by magnesium sulphate [8]: able to inhibit this response in a dose-dependent way; Gastric PGE synthase protein expression (PGE synthase): significantly reduced; Gastric PPAR-gamma protein expression (PPAR-gamma): significantly reduced"
"O=C[C@H](O)[C@@H](O)[C@@H](O)[C@H](O)CO [galactose, reference compound]",–,–,–,–,–,–,–,–,"Anti-inflammatory activity of galactose alone ([1]; galactose 16.3 mg/kg oral, 1 h before carrageenan): no anti-inflammatory activity"
